Here are results for 1 molecule from patent publication US8431595B2, “Furanopyridine cannabinoid compounds and related methods of use” (The University of Tennessee Research Foundation, priority 2009, dated 2013).

As a reminder, the EC50 is the concentration at which the effect is half-maximal.

For the test, the system named is glioblastoma brain cancer cell line LN-229. Kind of test: Cytotoxicity assay (CCK8 viability). Particulars: Homo sapiens, LN-229 cells, 48 hrs. It counts as cell-based. The method, then: Cytoxocity assay: Cells are seeded on a 96 well polystyrene plate in full serum media at a density of 75,000 cells per milliliter, 100 μL per well. Plates are incubated at 37° C. and 5% CO2 for 24 hours to allow cell attachment. Drug solutions are prepared in DMSO at 100× concentration and mixed 1:100 in 1% FBS media to yield the desired concentration. Drug-media mixtures are vortexed immediately prior to administration to cells. […] of Cell Counting Kit 8 (CCK8, Dojindo# CK04-11) is added to each well to colormetrically assess viability. After 2-4 hours of incubation with the CCK8 dye, absorbance is read at 450 nm by a BioTek Synergy 2 plate reader.
The cytotoxicity of selected compounds against the glioblastoma brain cancer cell line LN-229 is depicted in Table 1.

On to `CCCCCCC(C)(C)c1cc(O)c2c(-c3ccccc3)coc2n1` [Compound 4c, 6-(2-Methyloctan-2-yl)-3-phenylfuro[2,3-b]pyridin-4-ol], for which the EC50 was found to be 33.6 µM.
